Data published in US12172957B2, “Attractant composition for the species Delottococcus aberiae, methods for the monitoring, detection and/or control of the pest” (Ecologia y Proteccion Agricola, S.L., priority 2018, dated 2024).
Where “and” joins values, the source holds several entries; their conditions need not be identical. Identical values can stand only once.

What was measured:
[1] = Analysis of the attractant content of the septum carriers after 20 days in the field (emission); format: physicochemical
Method: Therefore, the mean emission for those 20 days is 9.45±2.13 μg/day. […] Therefore, the mean emission for those 20 days is 0.55±0.42 μg/day.

[2] = tested on: male Delottococcus aberiae; test: Field tests on the attraction response: baited adhesive traps in a citrus plot; format: in vivo
Method: The response in male Delottococcus aberiae to (4,5,5-trimethyl-3-methylenecyclopent-1-en-1-yl)methyl acetate was evaluated in two field tests performed in a citrus var. Marisol plot, located in Sagunto (Valencia), during the months of May-June 2018. In a first test, 3 blocks of 2 devices were installed, said devices being: (A) a device with carrier, without attractant substance and with a trap consisting of a white sheet with adhesive, (B) a device with carrier with bait containing 500 μg of (4,5,5-trimethyl-3-methylenecyclopent-1-en-1-yl)methyl acetate and a trap consisting of a white sheet with adhesive (95×150 mm) (in each block, the devices were located at a distance of 20 m from one another, whereas the distance between blocks was at least 30 m. The carriers loaded with (4,5,5-trimethyl-3-methylenecyclopent-1-en-1-yl)methyl acetate were septum-type carriers and were inserted in the centre of the trap.
The captures obtained in each of the traps were checked each week and the captured individuals were taken to the laboratory to be identified and counted. Traps in the same block were rotated each week.
The number of males captured per trap and day was compared by means of an analysis of variance (ANOVA; LSD test for comparison of the means, P<0.05), subject to transformation (In(x+1)) of the data to homogenise the variance.
In a second test, this was performed in the same way as test 1, but device B included bait containing 100 μg of (4,5,5-trimethyl-3-methylenecyclopent-1-en-1-yl)methyl acetate.

[3] = tested on: male Delottococcus aberiae; test: Choice test in glass Petri dish: response of males to the compound vs. pentane control, laboratory conditions; format: in vivo; conditions: 10 μl on 1 cm^2 filter paper vs. pentane negative control; 10 min; χ2 test P<0.05; FIG. 2
Method: The response of male Delottococcus aberiae to (4,5,5-trimethyl-3-methylenecyclopent-1-en-1-yl)methyl acetate was evaluated in the Centro de Ecologia Quimica Agricola (UPV, Valencia) by means of a test on the activity in a glass Petri dish. The tests were performed with light and under the same breeding conditions, at 23±2° C. and 60-70% relative humidity.
For these tests, males from breeding were also used, separated on Petri dishes right when the cottony cocoon begins to form. After pupating and finally emerging from the cocoon, the insects are observed under a binocular scope to confirm their state before being selected for the test.
The method used is described below: for each test, there were placed at opposite ends of the Petri dish a sample of (4,5,5-trimethyl-3-methylenecyclopent-1-en-1-yl)methyl acetate and a negative control (solvent pentane without activity), arranged on 1 cm^2 filter paper in an amount of 10 μl. Immediately, groups of males are carefully deposited on the test plate with the aid of a very fine brush. Therefore, the behaviour of the individuals with respect to the sources of stimulation is recorded for 10 min. Once the test has ended, the insects are discarded, such that each insect is exposed to olfactory stimuli only once. The obtained data were analysed by means of a Chi-squared test (χ2 test, P<0.05).

[4] = first field test, tested load 300 μg per septa

## C=C1C=C(COC(C)=O)C(C)(C)C1C (racemic) [Pheromone, (4,5,5-trimethyl-3-methylenecyclopent-1-en-1-yl)methyl acetate]
[1]; [4]
  Final content of the substance after 20 days: 109 µg
  Mean emission for those 20 days: 9.45 ± 2.13 µg/day
[1]; second field test, bait 100 μg
  Final content of the substance after 20 days: 91 µg
  Mean emission for those 20 days: 0.55 ± 0.42 µg/day
[2]; first field test, Table 1, bait 500 μg (300 μg per septa), single traps
  Male captures per trap and day: 61.0 and 52.7 and 58.0
[2]; first field test, bait 500 μg (300 μg elsewhere in the source), controls 0.11, P<0.001
  Average field captures per trap and day: 57.22
[2]; first field test, septum bait, white adhesive trap, ANOVA, LSD P<0.05, FIG. 3
  Attraction power of baited devices vs. traps without attractant: significantly higher attraction power
[2]; second field test, bait 100 μg, controls 0.06, P<0.036
  Average field captures per trap and day: 9.14
[3]
  Response of male Delottococcus aberiae in the test of choice: significant attractant response
